The supplement of paper PMC11061612

Legend:
Test in all cases: combination Emax (second highest fraction inhibited in the dose matrix, 72 h); higher = more inhibition; extreme values may be limits of the assay
[1] = test system: MDA-MB-453 (Breast Carcinoma)
Outline: (§1)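 Cell lines grown in DMEM/F12 or RPMI with 10% FBS were plated in 1536-well plates and held 24 hours at 37°C, 5% CO2 before 72 hours of exposure to two-drug dose matrices, with DMSO typically at 0.2%. CellTiter-Glo 2.0 luminescence gave viability, which was converted to inhibition. Vehicle wells were set to 0 and blank wells to 1. Combination Emax is the second-highest inhibition in the matrix, and Bliss excess is the observed combination effect minus the expected EA + EB − EA·EB, where EA and EB are the single-agent effects.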

[2] = test system: NCI-H650 (Lung Adenocarcinoma)
Outline: as §1

[3] = test system: NCI-H522 (Lung Adenocarcinoma)
Outline: as §1

[4] = test system: OACM5-1 (Esophageal Adenocarcinoma)
Outline: as §1

[5] = test system: CADO-ES1 (Ewing's Sarcoma)
Outline: as §1

[6] = test system: SK-LU-1 (Lung Adenocarcinoma)
Outline: as §1

[7] = test system: NCI-H1838 (Lung Adenocarcinoma)
Outline: as §1

[8] = test system: MOLT-4 (T-Lymphoblastic Leukemia)
Outline: as §1

[9] = test system: Mo-T (Other Blood Carcinomas)
Outline: as §1

[10] = test system: KOPN-8 (B-Lymphoblastic Leukemia)
Outline: as §1

COLO-679 (Melanoma) = test system: COLO-679 (Melanoma)
Outline: as §1

[11] = test system: KGN (Other Solid Carcinomas)
Outline: as §1

[12] = test system: A4-Fuk (B-Lymphoblastic Leukemia)
Outline: as §1

[13] = test system: COLO-668 (Small Cell Lung Carcinoma)
Outline: as §1

[14] = test system: SNU-387 (Hepatocellular Carcinoma)
Outline: as §1

[15] = test system: Ca-Ski (Cervical Carcinoma)
Outline: as §1

[16] = test system: SKN (Other Solid Carcinomas)
Outline: as §1

[17] = test system: NCI-H1355 (Lung Adenocarcinoma)
Outline: as §1

[18] = test system: DU-145 (Prostate Carcinoma)
Outline: as §1

[19] = test system: KMRC-1 (Kidney Carcinoma)
Outline: as §1

Row | SMILES | combination Emax [1] | combination Emax [2] | combination Emax [3] | combination Emax [4] | combination Emax [5] | combination Emax [6] | combination Emax [7] | combination Emax [8] | combination Emax [9] | combination Emax [10] | combination Emax (COLO-679 (Melanoma)) | combination Emax [11] | combination Emax [12] | combination Emax [13] | combination Emax [14] | combination Emax [15] | combination Emax [16] | combination Emax [17] | combination Emax [18] | combination Emax [19]
1 | C[C@@H]1COCCN1c1cc(C2([S@](C)(=N)=O)CC2)nc(-c2ccnc3[nH]ccc23)n1 [AZD6738] + O=C(c1cc(Cc2n[nH]c(=O)c3ccccc23)ccc1F)N1CCN(C(=O)C2CC2)CC1 [Olaparib] (first compound max 10 µM, 7x7, partner max 10 µM) | 0.794 | 0.193 | 0.23 | 0.518 | 0.915 | 0.473 | 0.542 | 1 | 0.552 | 0.876 | 0.661 | 0.828 | 0.706 | 0.659 | 0.575 | 0.647 | 0.417 | 0.712 | 0.548 | 0.566
2 | NC1(C(=O)N[C@@H](CCO)c2ccc(Cl)cc2)CCN(c2ncnc3[nH]ccc23)CC1 [Capivasertib] + CC(=O)c1c(C)c2cnc(Nc3ccc(N4CCNCC4)cn3)nc2n(C2CCCC2)c1=O [Palbociclib] (first compound max 10 µM, 7x7, partner max 10 µM) | 0.589 | 0.262 | 0.172 | 0.721 | 0.274 | 0.4 | 0.432 | 0.736 | 0.4 | 0.809 | 0.324 | 0.724 | 0.722 | 0.437 | 0.312 | 0.462 | 0.639 | 0.472 | 0.166 | 0.457
3 | NC1(C(=O)N[C@@H](CCO)c2ccc(Cl)cc2)CCN(c2ncnc3[nH]ccc23)CC1 [Capivasertib] + CC(C)n1c(=O)n(C)c2cnc3cc(F)c(-c4ccc(OCCCN5CCCCC5)nc4)cc3c21 [AZD1390] (first compound max 10 µM, 7x7, partner max 0.3 µM) | 0.56 | 0.268 | 0.192 | 0.71 | 0.0981 | 0.195 | 0.206 | 0.682 | 0.239 | 0.627 | 0.225 | 0.414 | 0.786 | 0.401 | 0.256 | 0.433 | 0.516 | 0.273 | 0.249 | 0.435
4 | NC1(C(=O)N[C@@H](CCO)c2ccc(Cl)cc2)CCN(c2ncnc3[nH]ccc23)CC1 [Capivasertib] + CCN(CCO)CCCOc1ccc2c(Nc3cc(CC(=O)Nc4cccc(F)c4)[nH]n3)ncnc2c1 [AZD2811] (first compound max 10 µM, 7x7, partner max 1 µM) | 0.599 | 0.346 | 0.226 | 0.763 | 0.243 | 0.195 | 0.386 | 0.997 | 0.321 | 0.86 | 0.31 | 0.688 | 0.878 | 0.454 | 0.312 | 0.465 | 0.555 | 0.425 | 0.219 | 0.494
5 | NC1(C(=O)N[C@@H](CCO)c2ccc(Cl)cc2)CCN(c2ncnc3[nH]ccc23)CC1 [Capivasertib] + COc1nnc2ccc(N3CCC(c4ccc(OCCN5CCN(C)C(=O)[C@H]5C)cc4)CC3)nn12 [AZD5153] (first compound max 10 µM, 7x7, partner max 1 µM) | 0.93 | 0.579 | 0.381 | 0.805 | 0.356 | 0.381 | 0.264 | 1 | 0.649 | 0.992 | 0.578 | 0.709 | 0.95 | 0.786 | 0.552 | 0.591 | 0.725 | 0.503 | 0.251 | 0.557
6 | NC1(C(=O)N[C@@H](CCO)c2ccc(Cl)cc2)CCN(c2ncnc3[nH]ccc23)CC1 [Capivasertib] + C[C@@H]1COCCN1C2=NC(=NC(=C2)C3(CC3)[S@](=N)(=O)C)C4=C5C=CNC5=NC=C4 [AZD6738] (first compound max 10 µM, 7x7, partner max 10 µM) | 0.706 | 0.406 | 0.251 | 0.774 | 0.729 | 0.511 | 0.494 | 1 | 0.417 | 0.986 | 0.634 | 0.9 | 0.942 | 0.677 | 0.613 | 0.582 | 0.608 | 0.773 | 0.398 | 0.579
7 | NC1(C(=O)N[C@@H](CCO)c2ccc(Cl)cc2)CCN(c2ncnc3[nH]ccc23)CC1 [Capivasertib] + Cn1cnc2c(F)c(Nc3ccc(Br)cc3Cl)c(C(=O)NOCCO)cc21 [Selumetinib] (first compound max 10 µM, 7x7, partner max 10 µM) | 0.572 | 0.352 | 0.268 | 0.7 | 0.279 | 0.437 | 0.367 | 0.758 | 0.41 | 0.722 | 0.786 | 0.54 | 0.905 | 0.669 | 0.409 | 0.597 | 0.594 | 0.443 | 0.219 | 0.504
8 | CS(=O)(=O)CCNCc1ccc(-c2ccc3ncnc(Nc4ccc(OCc5cccc(F)c5)c(Cl)c4)c3c2)o1 [Lapatinib] + C[C@@H](Oc1cc(-c2cnn(C3CCNCC3)c2)cnc1N)c1c(Cl)ccc(F)c1Cl [Crizotinib] (first compound max 10 µM, 7x7, partner max 10 µM) | 0.531 | 0.615 | 0.457 | 0.889 | 0.774 | 0.451 | 0.436 | 0.966 | 0.88 | 0.978 | 0.68 | 0.944 | 0.976 | 0.665 | 0.93 | 0.969 | 0.743 | 0.564 | 0.286 | 0.952
9 | CC(=O)c1c(C)c2cnc(Nc3ccc(N4CCNCC4)cn3)nc2n(C2CCCC2)c1=O [Palbociclib] + CC1(C)CCC(CN2CCN(c3ccc(C(=O)NS(=O)(=O)c4ccc(NCC5CCOCC5)c([N+](=O)[O-])c4)c(Oc4cnc5[nH]ccc5c4)c3)CC2)=C(c2ccc(Cl)cc2)C1 [Venetoclax] (first compound max 10 µM, 7x7, partner max 1 µM) | 0.275 | 0.172 | 0.127 | 0.479 | 0.678 | 0.279 | 0.279 | 0.629 | 0.297 | 0.958 | 0.0736 | 0.507 | 0.552 | 0.114 | 0.129 | 0.131 | 0.342 | 0.242 | 0.0454 | 0.162
10 | CC(=O)c1c(C)c2cnc(Nc3ccc(N4CCNCC4)cn3)nc2n(C2CCCC2)c1=O [Palbociclib] + Cc1c2c(nn1C)CSCc1cc(n(C)n1)CSc1cc(c3ccccc3c1)OCCCc1c(C(=O)O)n(C)c3c-2c(Cl)ccc13 [AZD5991] (first compound max 10 µM, 7x7, partner max 1 µM) | 0.282 | 0.244 | 0.57 | 0.932 | 0.46 | 0.297 | 0.363 | 0.9 | 0.344 | 0.917 | 0.335 | 0.644 | 1 | 0.304 | 0.429 | 0.342 | 0.385 | 0.345 | 0.107 | 0.322
11 | CC(=O)c1c(C)c2cnc(Nc3ccc(N4CCNCC4)cn3)nc2n(C2CCCC2)c1=O [Palbociclib] + Cn1cnc2c(F)c(Nc3ccc(Br)cc3Cl)c(C(=O)NOCCO)cc21 [Selumetinib] (first compound max 10 µM, 7x7, partner max 10 µM) | 0.241 | 0.36 | 0.127 | 0.477 | 0.265 | 0.362 | 0.321 | 0.766 | 0.329 | 0.801 | 0.75 | 0.529 | 0.732 | 0.363 | 0.221 | 0.301 | 0.349 | 0.325 | 0.12 | 0.218
12 | Cn1cnc2c(F)c(Nc3ccc(Br)cc3Cl)c(C(=O)NOCCO)cc21 [Selumetinib] + C=CCn1c(=O)c2cnc(Nc3ccc(N4CCN(C)CC4)cc3)nc2n1-c1cccc(C(C)(C)O)n1 [AZD1775] (first compound max 10 µM, partner max 1 µM) | 0.206 | 0.693 | 0.177 | 0.642 | 0.294 | 0.46 | 0.468 | 1 | 0.482 | 0.995 | 0.823 | 0.695 | 0.948 | 0.47 | 0.544 | 0.711 | 0.353 | 0.479 | 0.239 | 0.203
13 | Cn1cnc2c(F)c(Nc3ccc(Br)cc3Cl)c(C(=O)NOCCO)cc21 [Selumetinib] + CC(C)n1c(=O)n(C)c2cnc3cc(F)c(-c4ccc(OCCCN5CCCCC5)nc4)cc3c21 [AZD1390] (first compound max 10 µM, 7x7, partner max 0.3 µM) | 0.171 | 0.243 | 0.0811 | 0.209 | 0.175 | 0.264 | 0.237 | 0.348 | 0.246 | 0.596 | 0.796 | 0.341 | 0.404 | 0.421 | 0.284 | 0.222 | 0.113 | 0.172 | 0.16 | 0.165
